From PubChem BioAssay (NCI)
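The compound was tested at five concentrations on cells cultured in 96-well plates, with a 48-hour exposure period. TGI is the concentration that stops growth completely.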

Assays:
Experiment in all cases: NCI tumour cell line growth inhibition, 48 h
P388/ADR leukemia = tested on: P388/ADR leukemia
P388 leukemia = tested on: P388 leukemia
SN12K1 renal = tested on: SN12K1 renal
XF 498 CNS = tested on: XF 498 CNS

Structure (SMILES)	TGI (P388/ADR leukemia) [µM]	TGI (P388 leukemia) [µM]	TGI (SN12K1 renal) [µM]	TGI (XF 498 CNS) [µM]
Cc1n(CC(C)C)c2c([n+]1CC(=O)c1ccc([N+](=O)[O-])cc1)C(=O)c1ccccc1C2=O	61.3	0.563	0.279	–
Oc1c2c(c3c4c1N=CC=4CCN=3)C1(C=C(Br)C(O)C(Br)=C1)CCN2 (stereo not given)	4.81	–	10.7	–
COC(=O)C1CCC[C@H]2C(CO)=C(C)C(=O)[C@@H]12 (stereo not given in full)	–	–	–	> 100
CCCCCCCSCC1OC(n2cnc3c(N)ncnc32)C(O)C1O (stereo not given)	–	–	–	97.6
Clc1ccc2c(Cl)nc(-c3ccccc3)nc2c1	–	–	–	35.6
COc1cc(O)c2c(c1O)C(=O)c1cc(C)ncc1C2=O	–	–	–	> 50
Nc1ccn(CC(CO)CC(c2ccccc2)P(=O)(O)O)c(=O)n1 (stereo not given)	–	–	–	> 100
